Where two headings read alike, the source gives them in different places.
Experiments:
[1] = tested on: PIKFYVE TDP-43 yeast strain; assay: Propidium iodide viability assay, PIKFYVE TDP-43 yeast strain; assay type: cell-based; conditions: for IC50: Saccharomyces cerevisiae, PIKFYVE TDP-43 yeast strain, reduction in PI-positive cells, highest concentration 15 μM, read-out: BIKFYVE TDP-43 (IC50); for PIKfyve TDP-43 (active/inactive): PIKFYVE TDP-43 yeast model
Excerpt: (§1) Generation of TDP-43 yeast model expressing human PIKfyve. Human PIKFYVE (“entry clone”) was cloned into pAG416GPDccdB (“destination vector”) according to standard Gateway cloning protocols (Invitrogen, Life Technologies). The resulting pAG416GPD-PIKFYVE plasmids were amplified in E. coli and plasmid identity confirmed by restriction digest and Sanger sequencing. Lithium acetate/polyethylene glycol-based transformation was used to introduce the above PIKFYVE plasmid into a BY4741 yeast strain auxotrophic for the ura3 gene and deleted for two transcription factors that regulate the xenobiotic efflux pumps, a major efflux pump, and FAB1, the yeast ortholog of PIKFYVE (MATa, snq2::KILeu2; pdr3::KIura3;pdr1::NATMX; fab1::G418^R, his 3;leu2;ura3;met15;LYS2+) (FIG. 2). Transformed yeast were plated on solid agar plates with complete synthetic media lacking uracil (CSM-ura) and containing 2% glucose. Individual colonies harboring the control or PIKFYVE TDP-43 plasmids were recovered. A plasmid containing wild-type TDP-43 under the transcriptional control of the GAL1 promoter and containing the hygromycin-resistance gene as a selectable marker was transformed into the fab1::G418^R pAG416GPD-PIKFYVE yeast strain (FIG. 1). Transformed yeast were plated on CSM-ura containing 2% glucose and […] G418 after overnight recovery in media lacking antibiotic. Multiple independent isolates were further evaluated for cytotoxicity and TDP-43 expression levels.
(§2) Viability Assay. A control yeast strain with the wild-type yeast FAB1 gene and TDP-43 (“FAB1 TDP-43”, carries empty pAG416 plasmid), and the “PIKFYVE TDP-43” yeast strain, were assessed for toxicity using a propidium iodide viability assay. Both yeast strains were transferred from solid CSM-ura/2% glucose agar plates into 3 mL of liquid CSM-ura/2% glucose media for 6-8 hours at 30° C. with aeration. Yeast cultures were then diluted to an optical density at 600 nm wavelength (OD600) of 0.005 in 3 mL of CSM-ura/2% raffinose and grown overnight at 30° C. with aeration to an OD600 of 0.3-0.8. Log-phase overnight cultures were diluted to OD600 of 0.005 in CSM-ura containing either 2% raffinose or galactose and 150 μL dispensed into each well of a flat bottom 96-well plates. Compounds formulated in 100% dimethyl sulfoxide (DMSO) were serially diluted in DMSO and 1.5 μL diluted compound transferred to the 96-well plates using a multichannel pipet. Wells containing DMSO alone were also evaluated as controls for compound effects. Tested concentrations ranged from 15 μM to 0.11 μM. Cultures were immediately mixed to ensure compound distribution and covered plates incubated at 30° C. for 24 hours in a stationary, humified incubator.
(§3) Upon the completion of incubation, cultures were assayed for viability using propidium iodide (PI) to stain for dead/dying cells. A working solution of PI was made where, for each plate, 1 μL of 10 mM PI was added to 10 mL of CSM-ura (raffinose or galactose). The final PI solution (50 μL/well) was dispensed into each well of a new round bottom 96-well plate. The overnight 96-well assay plate was then mixed with a multichannel pipet and 50 μL transferred to the PI-containing plate. This plate was then incubated for 30 minutes at 30° C. in the dark. A benchtop flow cytometer (Miltenyi MACSquant) was then used to assess red fluorescence (B2 channel), forward scatter, and side scatter (with following settings: gentle mix, high flow rate, fast measurement, 10,000 events). Intensity histograms were then gated for “PI-positive” or “PI-negative” using the raffinose and galactose cultures treated with DMSO as controls. The DMSO controls for raffinose or galactose-containing cultures were used to determine the window of increased cell death and this difference set to 100. All compounds were similarly gated and then compared to this maximal window to establish the percent reduction in PI-positive cells.
Biochemical and Efficacy Assays. […]

FAB1 TDP-43 yeast strain = assay: Propidium iodide viability assay, FAB1 TDP-43 yeast strain; assay type: cell-based; conditions: for FAB1 TDP-43 (active/inactive): FAB1 TDP-43 yeast model
Excerpt: as §1, §2, §3

[2] = target: full-length human PIKFYVE (N-terminal GST-fusion) (Homo sapiens (Human), UniProt Q9Y2I7, L932S/Q1183K/Q995L/S1033A/S696N/T998S); assay: PIKfyve biochemical assay (ADP-Glo Kinase assay, Carna Biosciences)
Sequence of full-length human PIKFYVE (N-terminal GST-fusion) (Q9Y2I7 whole entry S696N/L932S/Q995L/T998S/S1033A/Q1183K, the tested form may be a part): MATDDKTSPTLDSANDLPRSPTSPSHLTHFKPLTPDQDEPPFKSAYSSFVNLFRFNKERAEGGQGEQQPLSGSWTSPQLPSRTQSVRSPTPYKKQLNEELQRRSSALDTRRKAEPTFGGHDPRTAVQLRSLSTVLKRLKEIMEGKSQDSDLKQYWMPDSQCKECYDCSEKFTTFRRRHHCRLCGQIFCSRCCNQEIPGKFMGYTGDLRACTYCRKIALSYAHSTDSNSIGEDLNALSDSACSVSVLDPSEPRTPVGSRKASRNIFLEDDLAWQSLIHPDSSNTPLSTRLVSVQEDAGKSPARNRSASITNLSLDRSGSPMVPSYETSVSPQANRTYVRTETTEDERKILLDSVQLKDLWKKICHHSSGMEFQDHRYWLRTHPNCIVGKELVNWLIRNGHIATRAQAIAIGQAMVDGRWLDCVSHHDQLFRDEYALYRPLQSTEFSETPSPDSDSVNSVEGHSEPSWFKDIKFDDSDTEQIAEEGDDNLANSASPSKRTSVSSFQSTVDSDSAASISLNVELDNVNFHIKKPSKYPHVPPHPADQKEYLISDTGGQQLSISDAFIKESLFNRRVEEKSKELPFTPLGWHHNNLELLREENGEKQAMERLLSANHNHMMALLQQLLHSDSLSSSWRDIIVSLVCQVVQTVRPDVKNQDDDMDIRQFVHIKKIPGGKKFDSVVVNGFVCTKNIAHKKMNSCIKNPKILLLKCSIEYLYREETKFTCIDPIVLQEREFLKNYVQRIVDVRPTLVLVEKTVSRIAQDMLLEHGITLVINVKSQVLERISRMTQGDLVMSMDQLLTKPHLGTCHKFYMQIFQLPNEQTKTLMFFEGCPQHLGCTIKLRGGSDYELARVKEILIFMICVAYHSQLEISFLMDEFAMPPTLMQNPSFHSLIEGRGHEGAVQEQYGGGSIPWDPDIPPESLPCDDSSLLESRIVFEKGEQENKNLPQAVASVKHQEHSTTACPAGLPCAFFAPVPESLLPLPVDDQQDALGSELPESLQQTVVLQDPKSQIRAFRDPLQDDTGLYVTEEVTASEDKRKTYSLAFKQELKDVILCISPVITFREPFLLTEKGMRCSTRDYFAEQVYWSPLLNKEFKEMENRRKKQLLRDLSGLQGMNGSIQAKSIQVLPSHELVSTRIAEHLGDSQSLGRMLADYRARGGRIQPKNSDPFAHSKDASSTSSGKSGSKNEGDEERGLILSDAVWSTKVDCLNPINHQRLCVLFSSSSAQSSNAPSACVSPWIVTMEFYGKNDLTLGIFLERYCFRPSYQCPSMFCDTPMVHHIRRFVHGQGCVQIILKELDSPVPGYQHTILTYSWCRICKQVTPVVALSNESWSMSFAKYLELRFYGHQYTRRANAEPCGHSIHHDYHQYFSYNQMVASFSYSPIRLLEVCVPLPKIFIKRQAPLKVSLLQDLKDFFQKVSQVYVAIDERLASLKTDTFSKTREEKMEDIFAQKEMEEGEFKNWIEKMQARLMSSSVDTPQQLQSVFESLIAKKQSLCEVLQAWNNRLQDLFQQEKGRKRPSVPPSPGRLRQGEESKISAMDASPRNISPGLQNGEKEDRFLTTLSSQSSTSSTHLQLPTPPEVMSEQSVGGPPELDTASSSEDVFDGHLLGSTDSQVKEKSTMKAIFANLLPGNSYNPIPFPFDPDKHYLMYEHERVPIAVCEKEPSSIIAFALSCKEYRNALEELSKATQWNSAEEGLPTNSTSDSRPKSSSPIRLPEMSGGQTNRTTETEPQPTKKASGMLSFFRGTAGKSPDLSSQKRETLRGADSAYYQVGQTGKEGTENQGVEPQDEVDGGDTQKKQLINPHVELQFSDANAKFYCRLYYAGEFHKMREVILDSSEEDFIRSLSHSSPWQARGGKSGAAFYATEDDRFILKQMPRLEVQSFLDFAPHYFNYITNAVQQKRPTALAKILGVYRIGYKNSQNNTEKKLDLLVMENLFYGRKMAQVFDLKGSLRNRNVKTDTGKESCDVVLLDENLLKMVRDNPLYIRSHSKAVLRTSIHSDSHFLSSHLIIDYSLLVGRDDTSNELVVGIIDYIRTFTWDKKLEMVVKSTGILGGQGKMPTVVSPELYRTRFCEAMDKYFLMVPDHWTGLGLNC
Summary of the method: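 Baculovirus-expressed, glutathione-purified GST-tagged full-length human PIKFYVE (S696N/L932S/Q995L/T998S/S1033A/Q1183K) reacted with substrate and ATP in 50 mM MOPS, 1 mM DTT, pH 7.2, 1 h at room temperature. ADP formed read by ADP-Glo luminescence.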

[3] = target: PIKfyve (PIKFYVE-NanoLuc fusion in HEK293 cells) (Homo sapiens (Human), UniProt Q9Y2I7); assay: NanoBRET TE Intracellular Kinase Assay, K-8 (Promega) cell-based assay; conditions: transfected HEK293 cells, 2 hours, read-out: hPIKfyve BRET IC50
Sequence of PIKfyve (PIKFYVE-NanoLuc fusion in HEK293 cells) (Q9Y2I7 whole entry, the tested form may be a part): as the sequence (Q9Y2I7 whole entry S696N/L932S/Q995L/T998S/S1033A/Q1183K, the tested form may be a part) above, with N696S, S932L, L995Q, S998T, A1033S, K1183Q counted along it
Method: NanoBRET™ TE Intracellular Kinase Assay, K-8 (Promega) Cell-Based Assay. Intracellular inhibition of PIKfyve was assayed using Promega's NanoBRET™ TE Intracellular Kinase Assay, K-8 according to manufacturer's instructions. A dilution series of test compounds was added for 2 hours to HEK293 cells transfected for a minimum of 20 hours with PIKFYVE-NanoLuc® Fusion Vector (Promega) containing a full-length PIKfyve according to manufacturer's specifications in a 96-well plate. Kinase activity was detected by addition of a NanoBRET™ tracer reagent, which was a proprietary PIKfyve inhibitor appended to a fluorescent probe (BRET, bioluminescence resonance energy transfer). Test compounds were tested at concentrations of 10, 3, 1, 0.3, 0.1, 0.03, 0.01, 0.003 μM. BRET signals were measured by a GloMax®Discover Multimode Microplate Reader (Promega) using 0.3 sec/well integration time, 450 BP donor filter and 600 LP acceptor filters. Active test compounds that bound PIKfyve and displaced the tracer reduced BRET signal. IC50 values were then calculated by fitting the data to the normalized BRET ratio.

[4] = ADP-Glo, full-length human GST-PIKFYVE, 10 μM to 3 nM, read-out: hPIKfyve IC50

`Oc1cc(-c2ccccc2)nn1-c1cc(N2CCOCC2)n2nc(-c3ccncc3)nc2n1` was tested, and the IC50 [1] was 0.693 µM.

With `Oc1cc(C2CCOCC2)nn1-c1cc(N2CCOCC2)n2nc(-c3ccncc3)cc2n1` the IC50 [1] was 9.11 µM.

In the case of `Cc1cccc(/C=N/Nc2nc3c(c(N4CCOCC4)n2)N=C(c2ccncc2)C3C)c1` (centres unmarked), the “FAB1 TDP-43 (active/inactive)” value (FAB1 TDP-43 yeast strain) is reported as “Inactive”, the IC50 ([2]; ADP-Glo with full-length PIKfyve, read-out: PIKfyve IC50) is reported as 0.0049 µM and the “PIKfyve TDP-43 (active/inactive)” value [1] is reported as “Active”.

`c1ccc(-n2ncc3c(OCc4cccnc4)nc(N4CCOCC4)nc32)cc1` [Compound 132, 4-(1-phenyl-4-(pyridin-3-ylmethoxy)-1H-pyrazolo[3,4-d]pyrimidin-6-yl)morpholine] was tested, and the IC50 [2, 4] was 0.01 to 0.1 µM and the IC50 [3] was 0.1 to 1 µM.

`CN(C)c1cc(N2CCOCC2)n2nc(-c3ccncc3)cc2n1` was tested, and the “FAB1 TDP-43 (active/inactive)” value (FAB1 TDP-43 yeast strain) was “Inactive” and the “PIKfyve TDP-43 (active/inactive)” value [1] was “Inactive”.

For `Cc1cccc(/C=N/Nc2cc(N3CCOCC3)n3nc(-c4ccncc4)cc3n2)c1` [drawing 514], the “FAB1 TDP-43 (active/inactive)” value (FAB1 TDP-43 yeast strain) was “Inactive” and the “PIKfyve TDP-43 (active/inactive)” value [1] was “Active”.

Work on `c1ccc(-c2ccnc(-c3cc(N4CCOCC4)nc(OCc4ccncc4)n3)n2)cc1` yielded an IC50 [1] of 1.45 µM.

For `c1ccc(N2CCc3c(OCc4cccnc4)nc(N4CCOCC4)nc32)cc1` [drawing 539], the IC50 [1] was 2.69 µM.

For `Cc1cccc(/C=N/Nc2cc(N3CC4CC3CO4)n3nc(-c4ccncc4)cc3n2)c1` (centres unmarked), the “FAB1 TDP-43 (active/inactive)” value (FAB1 TDP-43 yeast strain) was “Inactive” and the “PIKfyve TDP-43 (active/inactive)” value [1] was “Active”.

`Cc1cccc(/C=N/Nc2nc(N3CCOCC3)c3ncccc3n2)c1` showed an IC50 [1] of 8.21 µM.

`Fc1cccc(-c2ccnn2-c2nc(N3CCOCC3)c3ncccc3n2)c1` gave an IC50 ([2]; values plotted in FIG. 7, read-out: PIKFYVE Biochemistry (IC50)) greater than 10 µM and an IC50 [1] of 5.75 µM.

In the case of `Cc1cccc(/C=N/Nc2cc(N3CCOCC3)n3nc(-c4ccncc4)cc3n2)c1` [APY0201, reference compound], the “viable cells in FAB1 TDP-43 (propidium iodide)” value (FAB1 TDP-43 yeast strain; across a range of compound concentrations (only 0.23 μM is shown), FIG. 5) is reported as “no increase in viable cells”, the “propidium iodide-positive dead cells in PIKFYVE TDP-43” value ([1]; 0.23 μM, FIG. 6) is reported as “reduced the population of propidium iodide-positive dead cells” and the “concentrations affording increased viability in PIKFYVE TDP-43” value ([1]; PIKFYVE TDP-43 model) is reported as “Concentrations ranging from 0.5 mM to less than 100 nM afforded increased viability”.

Work on `Cc1cccc(/C=N/Nc2nc(N3CCOCC3)c3nc(-c4ccncc4)n(C)c3n2)c1` yielded an IC50 [1] of 4.72 µM.

`c1ccc(-c2cccc(-c3cc(N4CCOCC4)n4nc(-c5ccncc5)cc4n3)n2)cc1` was tested, and the IC50 [1] was 0.23 µM.

`CC(C)(C)OC(=O)N1CCC(N2CCc3c(OCc4cccnc4)nc(N4CCOCC4)nc32)CC1` [Compound 5, tert-butyl 4-(2-morpholino-4-(pyridin-3-ylmethoxy)-5H-pyrrolo[2,3-d]pyrimidin-7(6H)-yl)piperidine-1-carboxylate] gave an IC50 [2, 4] greater than 10 µM.

For `c1ccc(Oc2nc(N3CCOCC3)nc3c2CCN3c2cccnc2)nc1` [Compound 58], the IC50 [2, 4] was 0.1 to 1 µM.

`c1ccc(-c2nccc(-c3nc(N4CCOCC4)nc4c3CCN4c3ccncc3)n2)cc1` [Compound 125, 4-(4-(2-phenylpyrimidin-4-yl)-7-(pyridin-4-yl)-6,7-dihydro-5H-pyrrolo[2,3-d]pyrimidin-2-yl)morpholine] showed an IC50 [2, 4] of 0.01 to 0.1 µM.

Compound `O=C(C1CC1)N1CCC(c2nc(N3CCOCC3)nc3c2CCN3c2ccccc2)C1` (centres unmarked) [Compound 118, cyclopropyl(3-(2-morpholino-7-phenyl-6,7-dihydro-5H-pyrrolo[2,3-d]pyrimidin-4-yl)pyrrolidin-1-yl)methanone] has an IC50 [2, 4] of less than 0.01 µM.

`c1ccc(N2CCc3c(OCC4CCCO4)nc(N4CCOCC4)nc32)cc1` (centres unmarked) [Compound 29, 4-(7-phenyl-4-((tetrahydrofuran-2-yl)methoxy)-6,7-dihydro-5H-pyrrolo[2,3-d]pyrimidin-2-yl)morpholine] gave an IC50 [2, 4] of 0.1 to 1 µM.

In the case of `COc1cccc(C#Cc2nc(N3CCOCC3)nc3c2CCN3c2cccnc2)c1` [Compound 85, 4-(4-((3-methoxyphenyl)ethynyl)-7-(pyridin-3-yl)-6,7-dihydro-5H-pyrrolo[2,3-d]pyrimidin-2-yl)morpholine], the IC50 [2, 4] is reported as 0.1 to 1 µM.

For `Oc1ccc[n+](Cc2nc(N3CCOCC3)nc3c2CCN3c2ccccc2)c1` [Compound 60, 5-hydroxy-1-((2-morpholino-7-phenyl-6,7-dihydro-5H-pyrrolo[2,3-d]pyrimidin-4-yl)methyl)pyridin-1-ium-3-ylium], the IC50 [2, 4] was 0.1 to 1 µM.

For `c1cc(-c2nc(N3CCOCC3)nc3c(-c4nccc(C5CC5)n4)c[nH]c23)ccn1` [Compound 138, 4-(7-(4-cyclopropylpyrimidin-2-yl)-4-(pyridin-4-yl)-5H-pyrrolo[3,2-d]pyrimidin-2-yl)morpholine], the IC50 [2, 4] was 0.1 to 1 µM.

For `CN1CCCC(CCOc2nc(N3CCOCC3)nc3c2CCN3c2cccnc2)C1` (centres unmarked) [Compound 11, 4-(4-(2-(1-methylpiperidin-3-yl)ethoxy)-7-(pyridin-3-yl)-6,7-dihydro-5H-pyrrolo[2,3-d]pyrimidin-2-yl)morpholine], the IC50 [2, 4] was 0.01 to 0.1 µM.

Compound `O=C1COc2c(OCc3cccnc3)nc(N3CCOCC3)nc2N1c1ccccc1` [Compound 130, 2-morpholino-8-phenyl-4-(pyridin-3-ylmethoxy)-6H-pyrimido[5,4-b][1,4]oxazin-7(8H)-one] has an IC50 [2, 4] of 0.1 to 1 µM.

`c1cncc(Oc2nc(N3CCOCC3)nc3c2CCN3c2cccnc2)c1` [Compound 55, 4-(7-(pyridin-3-yl)-4-(pyridin-3-yloxy)-6,7-dihydro-5H-pyrrolo[2,3-d]pyrimidin-2-yl)morpholine] gave an IC50 [2, 4] of 0.1 to 1 µM.

For `N#Cc1ccc(N2CCc3c(OCc4cccnc4)nc(N4CCOCC4)nc32)cc1` [Compound 7, 4-(2-morpholino-4-(pyridin-3-ylmethoxy)-5H-pyrrolo[2,3-d]pyrimidin-7(6H)-yl)benzonitrile], the IC50 [2, 4] was 0.01 to 0.1 µM.

For `Cc1cccc(/C=N/Nc2cc(N3CCOCC3)nc(OCCc3ccc(CN)cc3)n2)c1`, the IC50 [1] was 1.12 µM.

In the case of `Cn1c(-c2ccncc2)nc2c(N3CCOCC3)ncnc21`, the “FAB1 TDP-43 (active/inactive)” value (FAB1 TDP-43 yeast strain) is reported as “Inactive” and the “PIKfyve TDP-43 (active/inactive)” value [1] is reported as “Inactive”.

Work on `O=c1ccccn1-c1nc(N2CCOCC2)nc2c1CCN2c1ccccc1` [Compound 50, 1-(2-morpholino-7-phenyl-6,7-dihydro-5H-pyrrolo[2,3-d]pyrimidin-4-yl)pyridin-2(1H)-one] yielded an IC50 [2, 4] of 0.1 to 1 µM.

With `N#Cc1cc(N2CCOCC2)n2nc(-c3ccncc3)cc2n1` the “FAB1 TDP-43 (active/inactive)” value (FAB1 TDP-43 yeast strain) was “Inactive” and the “PIKfyve TDP-43 (active/inactive)” value [1] was “Inactive”.

— patent publication US20250145642A1, “BICYCLIC HETEROARENES AND METHODS OF THEIR USE” (Kineta, Inc., priority 2021, published 2025)
